Assay results published in paper PMC12423301, “Astrocytic monoamine oxidase B (MAOB)–gamma-aminobutyric acid (GABA) axis as a molecular brake on repair following spinal cord injury” (Signal Transduction and Targeted Therapy, 2025).

Columns and labels:
in vivo [1] = test: in vivo; design: species or system SD Rat; conditions: rat
Protocol: Next, we tested whether pharmacological inhibition of MAOB facilitates recovery after SCI. […] The pharmacokinetic (PK) analysis of KDS2010 was performed in mice, rats, and nonhuman primates. […] We substituted the mouse SCI model with a rat SCI model, which has been reported to be better for pharmacological evaluation and closer to human SCI.[21] We performed Basso, Beattie and Bresnahan (BBB) locomotor test[22] to assess the functional recovery once a week for a total of 11 weeks (Fig. 2a). […] In addition to the BBB locomotor test, we performed the ladder rung test by measuring the percentage of hindlimb steps without slipping as rats walked along a horizontal ladder[23] (Fig. 2d, e). […] We then assessed the tissue recovery using EC staining on cross and longitudinal sections of the spinal cord. […]
(§1) In a pharmacokinetic study, plasma PK parameters were measured after a single oral administration of […]
dose group and at 4 to 6 hours after administration in the 30 mg/kg dose group. In the elimination phase, the […]
Systemic exposure (AUClast) to the test substance was 30587 and 80770 ng*hr/mL, respectively.
At this time, AUC0-inf was […]
time, AUC0-inf was 192000 ng eq.h/mL. […]

[2] = Preclinical pharmacokinetics in mice; format: in vivo, mouse
in vivo [3] = conditions: Sprague-Dawley, rat
Safety pharmacology test = conditions: in vivo
Protocol: (§2) Protocol No. NB_KDS_ADP1_21 Confidential administration of the test substance to rats at a dose of 50-200 mg/kg daily for 2 weeks, there were no deaths.
(§3) As a result of oral administration to rats at doses of 30, 50, 75 and 100 mg/kg once daily for 4 weeks, […]
(§4) testis, epididymis and lungs. Renal epithelial hyperplasia and inflammatory cells infiltration in the renal pelvis observed in the male and female dose groups of 75 mg/kg or more, germ cell degeneration/loss and seminiferous tubules atrophy observed in the male dose groups of 75 mg/kg or more, and vacuole/degeneration of outer medullary tubules and basophilic tubules observed in the female dose groups were judged to be adverse effects due to administration of the test substance. […] Accordingly, in repeated administrations of rats for 4 weeks, the NOAEL(No Observed Adverse Effect Level) was determined to be 50 mg/kg/day for males and 30 mg/kg for females. […]
as §1
(§5) a result of measuring excretion into urine, feces, expiration, and bile, 6.9% was excreted in urine and 48.5% in feces, respectively, up to 168 hours after administration. Excretion to air through respiration was about 0.0% until 48 hours after administration, and 44.1% of the administered radioactivity concentration was present in the body (carcass). […]

hERG = hERG (Homo sapiens, UniProt Q12809); test: hERG assay; format: biochemical
Protocol: as §2, §3, §4, §1, §5

[4] = ICR mouse, 5 mg/kg single intravenous administration
[5] = in vivo, APP/PS1 mouse, 1 mg/kg single oral administration
[6] = in vivo, APP/PS1 mouse, 10 mg/kg single oral administration
[7] = in vivo, ICR mouse, 5 mg/kg single intravenous administration
[8] = in vivo, ICR mouse, 5 mg/kg single oral administration
[9] = in vivo, ICR mouse, 10 mg/kg single oral administration
[10] = in vivo, ICR mouse, 30 mg/kg single oral administration

Chain of hERG (Q12809 whole entry): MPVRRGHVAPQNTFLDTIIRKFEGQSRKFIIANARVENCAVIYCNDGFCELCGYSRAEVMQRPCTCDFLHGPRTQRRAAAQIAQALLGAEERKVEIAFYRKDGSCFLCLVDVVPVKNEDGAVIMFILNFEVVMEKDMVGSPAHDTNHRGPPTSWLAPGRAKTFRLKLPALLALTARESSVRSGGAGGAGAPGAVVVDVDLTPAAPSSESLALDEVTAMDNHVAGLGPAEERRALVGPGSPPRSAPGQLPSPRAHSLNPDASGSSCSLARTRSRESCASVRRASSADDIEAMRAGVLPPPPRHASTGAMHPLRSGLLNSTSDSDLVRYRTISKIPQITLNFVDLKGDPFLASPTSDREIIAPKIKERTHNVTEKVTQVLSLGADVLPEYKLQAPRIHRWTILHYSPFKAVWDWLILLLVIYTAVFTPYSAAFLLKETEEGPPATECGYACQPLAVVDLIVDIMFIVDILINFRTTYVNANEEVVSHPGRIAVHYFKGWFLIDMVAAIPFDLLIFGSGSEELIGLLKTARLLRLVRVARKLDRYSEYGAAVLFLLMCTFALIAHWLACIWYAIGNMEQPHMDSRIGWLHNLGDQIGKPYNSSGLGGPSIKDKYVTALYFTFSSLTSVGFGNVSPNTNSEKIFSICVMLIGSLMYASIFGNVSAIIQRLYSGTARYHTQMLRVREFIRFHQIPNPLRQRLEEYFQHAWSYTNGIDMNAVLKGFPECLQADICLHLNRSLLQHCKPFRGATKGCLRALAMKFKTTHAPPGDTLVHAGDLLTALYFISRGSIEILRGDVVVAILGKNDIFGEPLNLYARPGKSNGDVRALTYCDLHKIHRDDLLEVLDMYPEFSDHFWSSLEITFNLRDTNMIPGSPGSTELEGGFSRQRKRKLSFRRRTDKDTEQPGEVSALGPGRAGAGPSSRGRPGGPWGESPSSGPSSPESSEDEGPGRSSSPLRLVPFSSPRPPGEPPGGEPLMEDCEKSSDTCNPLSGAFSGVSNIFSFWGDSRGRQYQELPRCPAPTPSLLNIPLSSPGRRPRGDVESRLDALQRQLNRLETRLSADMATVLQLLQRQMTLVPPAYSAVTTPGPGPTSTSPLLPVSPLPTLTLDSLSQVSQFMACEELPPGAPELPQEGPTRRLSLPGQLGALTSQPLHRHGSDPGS

Compound: CS(=O)(=O)O.C[C@H](NCc1ccc(-c2ccc(C(F)(F)F)cc2)cc1)C(N)=O [KDS2010, (S)-2-(((4’-Trifluoromethylbiphenyl-4-yl)methyl)amino)propanamide methane-sulfonate]
- AUC(0-inf) (in vivo [1]; SD, iv, 1 mg/kg): 164 ± 13.1 ng·h/mL
- Vd/F (in vivo [1]; SD, iv, 1 mg/kg): 18.377 ± 2.743 L/kg
- half-life (in vivo [1]; SD, iv, 1 mg/kg): 2.1 ± 0.3 h
- AUC(0-inf) (in vivo [1]; SD, po, 9 mg/kg): 9120 ± 4130 ng·h/mL
- Vd/F (in vivo [1]; SD, po, 9 mg/kg): 19.7 ± 4.34 L/kg
- half-life (in vivo [1]; SD, po, 9 mg/kg): 14.6 ± 8.7 h
- AUC(0-t) (in vivo [1]; Sprague-Dawley): ~3000 ng·h/mL
- AUC (in vivo [1]; Sprague-Dawley, po, 9 mg/kg): 3000 ng·h/mL
- CL/F (in vivo [1]; Sprague-Dawley, po, 9 mg/kg): 19 mL/min/kg
- Cmax (in vivo [1]; Sprague-Dawley, po, 9 mg/kg): 508 ng/mL
- half-life (in vivo [1]; Sprague-Dawley, po, 9 mg/kg): 10.8 h
- CL/F [2, 4]: 28.47 ± 1.37 mL/min/kg
- Vd/F [2, 4]: 10.439 ± 0.682 L/kg
- AUC(0-inf) [2, 5]: 1130 ± 173 ng·h/mL
- half-life [2, 5]: 4.76 ± 0.43 h
- CL/F ([2]; in vivo, APP/PS1 mouse, 1 mg/kg single oral administration, read-out: CL/F (converted)): 15 mL/min/kg
- Vd/F ([2]; in vivo, APP/PS1 mouse, 1 mg/kg single oral administration, read-out: Vd/F): 6.13 ± 0.767 L/kg
- AUC(0-inf) [2, 6]: 12900 ± 740 ng·h/mL
- half-life [2, 6]: 5.7 ± 0.7 h
- CL/F ([2]; in vivo, APP/PS1 mouse, 10 mg/kg single oral administration, read-out: CL/F (converted)): 14.3 mL/min/kg
- Vd/F ([2]; in vivo, APP/PS1 mouse, 10 mg/kg single oral administration, read-out: Vd/F): 7.01 ± 0.934 L/kg
- AUC(0-inf) [2, 7]: 3590 ± 71.7 ng·h/mL
- half-life [2, 7]: 4.2 ± 0.2 h
- AUC(0-inf) [2, 8]: 4180 ± 100 ng·h/mL
- half-life [2, 8]: 4.2 ± 0.1 h
- CL/F ([2]; in vivo, ICR mouse, 5 mg/kg single oral administration, read-out: CL/F (converted)): 18 mL/min/kg
- Vd/F ([2]; in vivo, ICR mouse, 5 mg/kg single oral administration, read-out: Vd/F): 6.6 ± 0.38 L/kg
- AUC(0-inf) [2, 9]: 7920 ± 457 ng·h/mL
- half-life [2, 9]: 4.4 ± 0.2 h
- CL/F ([2]; in vivo, ICR mouse, 10 mg/kg single oral administration, read-out: CL/F (converted)): 22 mL/min/kg
- Vd/F ([2]; in vivo, ICR mouse, 10 mg/kg single oral administration, read-out: Vd/F): 8.41 ± 0.843 L/kg
- AUC(0-inf) [2, 10]: 27100 ± 1090 ng·h/mL
- half-life [2, 10]: 4.3 ± 0.4 h
- CL/F ([2]; in vivo, ICR mouse, 30 mg/kg single oral administration, read-out: CL/F (converted)): 14.5 mL/min/kg
- Vd/F ([2]; in vivo, ICR mouse, 30 mg/kg single oral administration, read-out: Vd/F): 5.45 ± 0.512 L/kg
- MTD (in vivo [3]; po): 700 mg/kg
- NOAEL at 4 weeks (in vivo [3]; female, NOAEL): 30 mg/kg
- NOAEL at 4 weeks (in vivo [3]; female, human equivalent dose (HED) of NOAEL): 4.84 mg/kg
- NOAEL at 4 weeks (in vivo [3]; male, NOAEL): 50 mg/kg/day
- effects on central nervous system, respiratory system, and cardiovascular system (Safety pharmacology test): no effect
- IC50 (hERG): 7.8 ± 1.7 µM
